Here are results for 9 compounds from patent US12679860B2, “C-terminal HSP90 inhibitors” (UNIVERSITY OF KANSAS, priority 2012, dated 2026).

This experiment deals with embryonic dorsal root ganglion (DRG) sensory neuron cultures. Description: Glucotoxicity assay: cell viability (calcein AM) of DRG sensory neurons under glucose-induced toxicity. Type of experiment: cell-based, Sprague Dawley rat. Particulars: for viability at 1 µM: Rattus norvegicus, Neuron, glucose + DMSO was 54% ± 2. Here is the method: DRG sensory neurons were incubated in the absence or presence of 0.1-1000 nM of the indicated novologue overnight and then subjected to 4 hrs of hyperglycemia.
The ganglia were sedimented at 1,000×g for 5 min, resuspended in growth media [phenol red free Neurobasal medium (Gibco, Grand Island, NY) containing 25 mM glucose, 1X B-27 additive, 50 ng/ml NGF (Harlan Bioscience, Indianapolis, IN), 4 mM glutamine, 100 U/mL penicillin and 100 μg/mL streptomycin] and triturated with a fire-polished glass pipette. The cells were cultured on collagen-coated (0.1 mg/mL collagen followed by overnight air drying in a laminar flow hood) black-walled 96-well plates (Corning Incorporated Corning, NY) at a seeding density of 2-3×10^4 cells per well. DRG neurons were re-fed the next day with fresh growth media containing 40 μM fluorodeoxyuridine and 10 μM cytosine β-D-arabinoside (both from Sigma Aldrich, St. Louis, MO) for 2 days to remove proliferating cells. Experiments were performed on DRG neurons on the third day in culture after placing the cells in fresh growth medium. […]
DRG neurons were incubated overnight with the test compounds in the presence of Neurobasal medium, 50 ng/ml NGF and antibiotics only. In order to monitor the efficiency of the compounds in protecting DRG neurons against glucotoxicity, Calcein AM (Invitrogen, Carlsbad, CA) was utilized to measure cell viability. Hydrolysis of calcein AM to a fluorescent product can only occur in live cells. Excess glucose was added to the cultures for 4 hrs and cell viability was measured by incubating the cells with 2 μM calcein AM for 30 min in the dark at 37° C. Fluorescence was then measured using a plate reader with excitation and emission wavelengths set to 485 nm and 520 nm, respectively. The arbitrary fluorescence readings were normalized to the total amount of protein from each respective well of the neuronal cultures. The protein concentrations in each well were determined using the DC protein assay (Bio-Rad). Significant differences in the efficacy of the novologues for increasing cell viability were determined using a Kruskal-Wallis non-parametric ANOVA and Dunn's post-test.

The mark [1] stands for this setting: Table 2 cyclohexene analogues, 1 μM novologue + 20 mM excess glucose.
Where [2] appears, read: Table 1, 1 μM of each novologue + 20 mM excess glucose.
The mark [3] stands for this setting: 1 μM novologue + 20 mM excess glucose.

The viability is a per cent measure of how many cells are alive, often set against a control.

Take `CO[C@@H]1[C@@H](O)[C@@H](O)[C@H](Oc2ccc(C3CC=CCC3NC(C)=O)c(-c3cccc(C(F)(F)F)c3)c2)OC1(C)C` (mixture of isomers) [20b, N-(4′-(((3R,4S,5R)-3,4-dihydroxy-5-methoxy-6,6-dimethyltetrahydro-2H-pyran-2-yl)oxy)-3″-(trifluoromethyl)-1,2,3,6-tetrahydro-[1,1′: 2′,1″-terphenyl]-2-yl) acetamide]: the viability at 1 µM under setting [1] is 69%.
Consider `CO[C@@H]1[C@@H](O)[C@@H](O)C(Oc2ccc(CCNC(C)=O)c(-c3cccc(CN4CCOCC4)c3)c2)OC1(C)C` (stereo partly drawn) [11l, N-(2-(5-(((3R,4S,5R)-3,4-dihydroxy-5-methoxy-6,6-dimethyltetrahydro-2H-pyran-2-yl)oxy)-3′-(morpholinomethyl)-[1,1′-biphenyl]-2-yl)ethyl)acetamide], for which the viability at 1 µM under setting [2] is 83%.
Same read-out and setting: under `CO[C@@H]1[C@@H](O)[C@@H](O)C(Oc2ccc(CCNC(C)=O)c(-c3cccc(C)c3)c2)OC1(C)C` (stereo partly drawn) [11k, N-(2-(5-(((3R,4S,5R)-3,4-dihydroxy-5-methoxy-6,6-dimethyltetrahydro-2H-pyran-2-yl)oxy)-3′-methyl-[1,1′-biphenyl]-2-yl)ethyl)acetamide] stands 82%.
The same measure, in the same setting: under `COc1ccccc1-c1cc(OC2OC(C)(C)[C@H](OC)[C@@H](O)[C@H]2O)ccc1CCNC(C)=O` (stereo partly drawn) [11i, N-(2-(5-(((3R,4S,5R)-3,4-dihydroxy-5-methoxy-6,6-dimethyltetrahydro-2H-pyran-2-yl)oxy)-2′-methoxy-[1,1′-biphenyl]-2-yl)ethyl)acetamide] stands 92%; under `CO[C@@H]1[C@@H](O)[C@@H](O)C(Oc2ccc(CCNC(C)=O)c(-c3ccc(O)cc3)c2)OC1(C)C` (stereo partly drawn) [11m, N-(2-(5-(((3R,4S,5R)-3,4-dihydroxy-5-methoxy-6,6-dimethyltetrahydro-2H-pyran-2-yl)oxy)-4′-hydroxy-[1,1′-biphenyl]-2-yl)ethyl)acetamide], 67%.
Consider `CO[C@@H]1[C@@H](O)[C@@H](O)C(Oc2ccc(CCNC(C)=O)c(-c3cccnc3)c2)OC1(C)C` (stereo partly drawn) [11o, N-(4-(((3R,4S,5R)-3,4-dihydroxy-5-methoxy-6,6-dimethyltetrahydro-2H-pyran-2-yl)oxy)-2-(pyridin-3-yl)phenethyl)acetamide], for which the “protection against glucose-induced toxicity (in words)” value under setting [3] is on record as “unable to protect against glucose-induce toxicity”. Besides, the viability at 1 µM under setting [2] is 61%.
In the case of `CO[C@@H]1[C@@H](O)[C@@H](O)C(Oc2ccc(CCNC(C)=O)c(-c3ccncc3)c2)OC1(C)C` (stereo partly drawn) [11p, N-(4-(((3R,4S,5R)-3,4-dihydroxy-5-methoxy-6,6-dimethyltetrahydro-2H-pyran-2-yl)oxy)-2-(pyridin-4-yl)phenethyl)acetamide], the viability at 1 µM under setting [2] is 81%.
For the compound `CO[C@@H]1[C@@H](O)[C@@H](O)C(Oc2ccc(CCNC(C)=O)c(-c3cccc(Cl)c3)c2)OC1(C)C` (stereo partly drawn) [11e, N-(2-(3′-chloro-5-(((3R,4S,5R)-3,4-dihydroxy-5-methoxy-6,6-dimethyltetrahydro-2H-pyran-2-yl)oxy)-[1,1′-biphenyl]-2-yl)ethyl)acetamide], the “protection against glucose-induced toxicity (in words)” value under setting [3] was “showed significant protection against glucotoxicity”. For the same compound, under setting [2], the viability at 1 µM is 90%.
As for `CO[C@@H]1[C@@H](O)[C@@H](O)[C@H](Oc2ccc(C3CC=CCC3NC(C)=O)c(-c3cccc(F)c3)c2)OC1(C)C` (mixture of isomers) [20a, N-(4′-(((3R,4S,5R)-3,4-dihydroxy-5-methoxy-6,6-dimethyltetrahydro-2H-pyran-2-yl)oxy)-3″-fluoro-1,2,3,6-tetrahydro-[1,1′: 2′,1″-terphenyl]-2-yl)acetamide], the viability at 1 µM under setting [1] was 78%.
